Experimental findings from a melting point compilation (Tetko et al.; mined from patent text by program, amines drawn as free bases though some values may be those of a salt) are described below.

The melting point is the temperature, or range, at which the solid turns liquid.

`CCOC(=O)C(C)(C)c1ccc(C(O)CCCN2CCC(=C3c4ccccc4CCc4ccccc43)CC2)cc1` (centres undefined) displayed a melting point of 142 to 144 °C.

Compound `O=C(CCCCO)c1cccnc1` gave a melting point of 36 to 38 °C.

For the compound `CC(=O)n1cc(/C=C2\N=C(c3ccccc3)OC2=O)c2cc(Cl)cnc21`, the melting point came to 242 °C. On to `COc1cc(N(C)C)cc(CN(C)CCc2ccc(N=C(N)c3cccs3)cc2)c1O`, for which the melting point was in the range of 91 to 93 °C. In the case of `CCCCCCCCCCCCC1=C(O)C(=O)c2c(C)cccc2C1=O` it was 92 to 93 °C. In the case of `O=C(c1cccnc1)c1cc(-c2ccc(Cl)cc2)c(N2CCOCC2)s1` it was 114 °C. In the case of `Cc1nn(C)c(NCC(C)(C)C)c1NCc1ccncc1` it was 88 to 90 °C; in that of `CC(=O)C(C(C)=O)C(=O)NS(=O)(=O)c1ccc(C)cc1`, 137 to 140 °C; in that of `COc1ccc(C(Cl)=NS(=O)(=O)C=Cc2ccc(Cl)c(Cl)c2)cc1OC`, 120 to 125 °C. `CC(OC(=O)C12CC3CC(CC(C3)C1)C2)c1ccncc1` (single isomer, unassigned; (-)): the melting point was in the range of 164 to 166 °C.

For the compound `OC(CNC1=NCCN1)c1ccccc1` (centres undefined), the melting point lay in the range of 147 to 149 °C.

On to `CS(=O)(=O)c1ccc(C2=C(c3ccc(Cl)c(Cl)c3)CCC2)cc1`, for which the melting point lay in the range of 100 to 101 °C. As for `O=C(O)c1cc(Cl)cc2c1[nH]c1ccccc12`, the figure is 245 °C; as for `CCc1nc2c(NC(=O)C(C)C)nc3ccccc3c2n1CCCCNS(C)(=O)=O`, 122 to 124 °C. For the compound `COc1nc(C)c(C(C)OC(=O)CCC(=O)O)cc1NC(=O)N1CCN(c2cc(C)cc(C)c2)CC1` (centres undefined), the melting point is 138 to 140 °C. `CCOP(=O)(/C=C/c1cn(-c2ccccc2)nc1OCc1ccc(OCc2nc(-c3cccc(C(N)=O)c3)oc2C)c(OC)c1)OCC` showed a melting point of 127 to 128 °C. The compound `COc1ccc(C(=O)C=Cc2ccc(OCc3ccccc3)cc2)c(O)c1CC=C(C)C` came in with a melting point of 70 to 71 °C. As for `CC(Cn1cncn1)c1ccc(Cl)cc1Cl` (centres undefined), the figure is 79.5 °C. In the case of `CCSc1cc(C(=O)O)cc(N)c1Oc1ccccc1` it was 154 to 155 °C. In the case of `Oc1ccc2c(c1)C[C@@H](NC[C@H](O)c1ccc(OCc3ccccc3)c(CCOCc3ccccc3)c1)CC2` it was 147 to 150 °C; in that of `C=C(C)C(=O)OCCOCc1ccc(O)c2ncccc12`, 90 to 91 °C. Compound `CCN1C(OC)=NC(C)=NS1(=O)=O` showed a melting point of 50 to 53 °C. In the case of `Cc1ccc2ncn(-c3nnn[nH]3)c(=O)c2c1` it was 285 to 286 °C. In the case of `CC(C)(C)OC(=O)NCC(=O)NCCCN1CCN(CCCNc2cccc3c2C(=O)c2ccccc2C3=O)CC1` it was 118 °C; in that of `O=C(/C=C/c1ccc(C(F)(F)F)cc1-c1cccnc1)Nc1ccc2[nH]ccc2c1`, 196 to 197 °C; in that of `COCn1cnc(N2CCc3ccccc3CC2)c(C#N)c1=O`, 119 to 124 °C. In the case of `CCOP(=O)(OCC)N1C(=O)[C@@H](NC(=O)OC(C)(C)C)[C@@H]1C` it was 101 to 104 °C.

In the case of `N#Cc1cnc2sc(-c3ccccc3)cc2c1Oc1ccc2[nH]ccc2c1`, the melting point was in the range of 219 to 221 °C. As for `CS(=O)(=O)c1nccc(-n2nnc3ccccc32)n1`, the figure is 202 °C; as for `C[C@@H]1CCCC[C@@H]1Nc1c(C(N)=O)cnc2[nH]c(-c3ccc(F)cc3)cc12`, > 280 °C. `CC(c1ccc(C(=O)O)cc1)N(C)c1ccc(Br)cc1OCc1ccccc1` (centres undefined) gave a melting point of 182 °C. For the compound `Cc1cc(Oc2ccc(NC(=O)N3CCc4ccccc4CC3)cn2)ccc1Cl`, the melting point lay in the range of 171 to 173 °C. With `O=C(NNC(=O)C(Cl)(Cl)Cl)c1cccc(Cl)c1`, the melting point was 143 to 144 °C. Regarding `CCCCNCCCNCCCCCCCCNCCCNCCCC`, the melting point was > 300 °C.

`Cc1ccc(C(=O)NCCCn2ccnc2)c(Nc2ccc3cn[nH]c3c2)n1`: the melting point is 203 to 205 °C. `O=C(O)COc1ccc2cc(-c3cnc(Cc4ccccc4)o3)ccc2c1`: the melting point was 236 to 238 °C.

Compound `O=c1c2c(O)c(O)ccc2c2cc(O)c(O)cc2n1Cc1ccccc1` registered a melting point of 224 to 225 °C.

Consider `Oc1cc2ncnc(Nc3cccc(Cl)c3)c2cc1O`, for which the melting point is 233 to 235 °C. As for `COc1ccc(-c2nc3cc(OC)cc(-c4ccccc4)c3o2)cc1`, the figure is 92 °C; as for `COc1ccc(N2CCOCC2)c2sc(-c3nc4c([nH]3)COCC4)nc12`, 203 to 204 °C; as for `CC1Nc2cc(F)c(F)cc2-n2cccc21` (centres undefined), 93 to 95 °C. As for `CC1(C)C(Cl)C(=O)C1CC(Br)(Br)Br` (centres undefined), the figure is 87 to 89 °C; as for `CN(c1cccc2cc(-c3nc(CC(=O)O)cs3)[nH]c12)S(=O)(=O)c1cccs1`, 214 to 215 °C; as for `COC(=O)c1ccccc1S(=O)(=O)NC(=O)Nc1ncc(Cl)cn1`, 217 to 221 °C. As for `CCOc1cc2ncc(C#N)c(Nc3ccccc3)c2cc1OCC`, the figure is 168 to 170 °C.

In turn, `CCOC(=O)CCc1ccc(C(=O)Cc2ccccc2)cc1` returned a melting point of 50.5 to 52.5 °C.

`CCCc1nc(C(=O)C(C)C)c(C#N)[nH]1` displayed a melting point of 90.5 to 91 °C. As for `Clc1ccc(C(c2ccccc2)c2ccccc2)cn1`, the figure is 69.5 to 71 °C; as for `O=C(O)c1c[nH]c2cc(C(F)(F)F)nn2c1=O`, > 340 °C; as for `COc1cc2ncc(C#N)c(Nc3cccc(Cl)c3)c2cc1OC`, 214 to 217 °C. The compound `CC(C(=O)O)c1ccc(-c2ccc(F)cc2)c(O)c1` (centres undefined) yielded a melting point of 138 to 142 °C. As for `CCC1(C)Cc2c(C)c(Cl)c(C=O)c(C)c2C1` (centres undefined), the figure is 89 to 90 °C; as for `CN(C(=O)c1ccc(N)cc1)[C@@H]1CN(C2CCCCC2)C[C@H]1O` (relative stereo), 180 to 182 °C. Compound `CCOC(=O)Cc1ccc(NC(=O)C(COS(C)(=O)=O)NS(=O)(=O)c2ccc(Cl)cc2)cc1` (racemic) displayed a melting point of 142 to 143 °C.

Take `CC(O)=C(C#N)C(=O)Nc1ccc(Br)cc1`: the melting point was in the range of 213 to 214 °C. Compound `Cc1nn(C)c(-n2ccc3cc(Cl)cnc32)c1/C=C/C(=O)NS(=O)(=O)NCC1CC1` registered a melting point of 209 to 210 °C. Take `CCOc1cc(N)nc(Cl)n1`: the melting point was 133 °C. As for `CC(=O)n1c(CCc2ccccc2)cc2c(I)ccnc21`, the figure is 109 to 110 °C; as for `CS(=O)(=O)C(=C1CN(C(c2ccccc2)c2ccccc2)C1)c1cccc([N+](=O)[O-])c1`, 184 °C; as for `C[C@@H]1CN(c2ncc3ncnc(Nc4ccc(F)c(Cl)c4)c3n2)CC[C@@H]1N` (relative stereo), 161 to 164 °C.

With `CCc1cc(C(C)=O)c(O)cc1OCCCCCNC(C)=O`, the melting point was 115 to 116 °C. As for `O=P(O)(O)CN(CP(=O)(O)O)c1ccccc1`, the figure is 130 to 131 °C; as for `CCNc1cc(OC)ccc1S(=O)(=O)N1C(=O)C(N)(c2ccccc2Cl)c2cc(Cl)ccc21` (centres undefined), 192 to 196 °C; as for `CCn1c(CCO)nc(N2CCc3ccccc3CC2)c(C#N)c1=O`, 114 to 115 °C. In the case of `CC(=O)c1ccc(OCCCOc2cccc(NC(=O)c3nnn[nH]3)c2C#N)c(CCC(F)(F)F)c1O`, the melting point lay in the range of 206 to 208 °C. Consider `COc1ccc2c(cccc2[C@H]2CO[C@H](CCCNC(=O)OCC(N)=O)OC2)c1`, for which the melting point was 148 to 150 °C.

As for `CCCOc1ccc(S(=O)(=O)N2CC(CN(C)C)C2)cc1-c1nc2c([nH]1)c1nncn1c(=O)n2CCC`, the melting point stood at 172 °C. In the case of `Nc1cc(Nc2ccccc2)nc2c1ncn2C1OC(CO)C(O)C1O` (centres undefined) it was 192 to 195 °C. As for `COC1=C(c2ccccc2CSc2nc3ccccc3s2)C(=O)OC1`, the figure is 81 to 82 °C; as for `NC(=O)c1c(Cl)c(-c2ccccc2)n2c1CN(S(=O)(=O)c1ccc([N+](=O)[O-])cc1)CC2`, 203 to 205 °C. As for `CS(=O)(=O)c1ccc(-n2cncc2-c2cnc(Cl)c(Cl)c2)cc1`, the figure is 192 to 198 °C; as for `CN(C)C=NS(=O)(=O)c1ccc(Br)s1`, 103 to 105 °C; as for `CCOC(=O)C(C)(C)c1ccc(C2=NC(C)(C)Cc3cc(OC)c4c(c32)CC(C)(C)O4)cc1`, 150 to 151 °C. `COC(=O)COc1ccc(C(=O)CN2CCN(c3ccncc3)CC2)cc1` displayed a melting point of 150 to 152 °C. As for `COc1ccc(-c2nc3cc(F)ccc3s2)cc1OC(=O)N1CCOCC1`, the figure is 170 °C; as for `Cc1ccccc1-c1cc(C(=O)NC(=N)N)c2ccc(O)cc2n1`, 202 to 208 °C.

In turn, `Cc1ccc(C2COc3c(C)c(C)c(Br)c(C)c32)nc1` (centres undefined) had a melting point of 105 to 106 °C.

For the compound `Cc1c(OCC(F)(F)F)ccnc1CS(=O)c1nc2ccccc2n1S(=O)(=O)c1ccc2c(c1)OCCOCCOCCOCCO2` (centres undefined), the melting point was in the range of 76 to 80 °C. As for `C=Cc1ccc(CCOC(=O)CC(C)NC(N)=O)cc1` (centres undefined), the figure is 117 to 119 °C; as for `COc1cccc2c1[nH]c1c(C(=O)O)cccc12`, 252 °C; as for `NS(=O)(=O)c1cccc2c1S(=O)(=O)CC2`, 215 to 217 °C. Consider `N#Cc1c(Cl)c(Cl)n(C#N)c1-c1ccc(Cl)c(Cl)c1`, for which the melting point lay in the range of 250 to 252 °C.

Take `CC(=O)Nc1cccc(-c2ccc3nc(-c4cccnc4N)n(-c4ccc(CNC(=O)c5ccccc5)cc4)c3n2)c1`: the melting point fell in the range of 205 to 208 °C. As for `CCCN(CCC)Cc1coc(-c2ncn3c2CN(C)C(=O)c2c(Cl)cccc2-3)n1`, the figure is 105 to 107 °C; as for `CC(=O)OCC(ON1C(C)(C)CC(O)CC1(C)C)c1ccccc1` (centres undefined), 68 to 69 °C. Regarding `O=C1NC(=O)C(Cc2cc(Cl)ccc2[N+](=O)[O-])N1` (centres undefined), the melting point lay in the range of 184 to 186 °C. In the case of `CCN(CC)CCN1C(=O)C(O)C(c2ccc(OC)cc2)Sc2c1ccc1ccccc21` (centres undefined) it was 124 to 125 °C. As for `CCCC(N)CCCCCCC(=O)O` (centres undefined), the figure is 107 to 108 °C; as for `O=c1[nH]c2[nH]c3ccc(Cl)cc3c2c2ccccc12`, > 300 °C.
